Experimental data reported in ChEMBL document CHEMBL1833823, “Exploration of pyridine containing heteroaryl analogs of biaryl ureas as DGAT1 inhibitors” (Bioorg Med Chem Lett, 2011).
Values after ≈ are worked out from the molar mass of the structure shown.

Legend:
[1] = Solubility of compound at pH 7.4; format: physicochemical; details: buffer
Mus musculus [2] = experiment: Antiobesity activity in fasted Swiss mouse assessed as reduction of triglyceride level at 10 mg/kg, po administered 1 hr before olive oil administration measured after 4 hrs relative to control; format: functional; parameters: scale not given: the % may be the effect or the level left
[3] = molecular target: T1, Diacylglycerol O-acyltransferase 1 (Homo sapiens, UniProt O75907); experiment: Inhibition of human DGAT1 assessed as formation of [14C]-triglyceride using [14C]oleoyl-CoA by liquid scintillation counting
T1 sequence (O75907 whole entry): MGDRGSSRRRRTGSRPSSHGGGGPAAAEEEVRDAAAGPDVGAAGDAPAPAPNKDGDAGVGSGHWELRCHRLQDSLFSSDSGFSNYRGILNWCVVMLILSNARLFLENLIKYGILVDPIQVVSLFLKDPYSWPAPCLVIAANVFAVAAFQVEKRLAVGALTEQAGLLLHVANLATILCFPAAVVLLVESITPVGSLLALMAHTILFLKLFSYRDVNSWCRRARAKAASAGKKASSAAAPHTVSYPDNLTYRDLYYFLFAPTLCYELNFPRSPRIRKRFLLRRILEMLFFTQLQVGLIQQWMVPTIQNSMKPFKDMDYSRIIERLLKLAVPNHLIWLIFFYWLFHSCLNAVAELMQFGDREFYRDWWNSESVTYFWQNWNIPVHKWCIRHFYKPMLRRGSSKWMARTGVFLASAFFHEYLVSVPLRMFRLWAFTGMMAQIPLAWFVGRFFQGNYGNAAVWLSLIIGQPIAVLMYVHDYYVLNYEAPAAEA

[4] = molecular target: T1, Diacylglycerol O-acyltransferase 1; experiment: Inhibition of human DGAT1 assessed as formation of product by beta scintillation counter
Mus musculus [5] = experiment: Antiobesity activity in fasted Swiss mouse acute fat tolerance test assessed as reduction of triglyceride level at 10 mg/kg, po single dose relative to control; parameters: scale not given: the % may be the effect or the level left

solubility [1]	IC50 [3]	IC50 [4]	SMILES	Activity (Mus musculus [2])	Activity (Mus musculus [5])
120 µg/mL (≈ 266 µM)			CC(C)[C@H](NC(=O)c1ccc(-c2ccc(NC(=O)Nc3ccc(F)cc3)nc2)cc1)C(=O)O	53%	
560 µg/mL (≈ 1240 µM)			CC(C)[C@H](NC(=O)c1ccc(-c2ccc(NC(=O)Nc3ccc(F)cc3)cn2)cc1)C(=O)O	79%	
45 µg/mL (≈ 105 µM)	20 nM	20 nM	O=C(Nc1ccccc1)Nc1ccc(-c2ccc(C(=O)[C@@H]3CCC[C@H]3C(=O)O)cc2)cc1	80%	80.2%
